Data taken from patent publication US20090298894A1, “AMINO ACID COMPOUNDS” (Asahi Kasei Pharma Corporation, priority 2008, published 2009).
Where a name gives a salt, the structure may show the parent alone.

molecular target: T1, human S1P1 (Homo sapiens, UniProt P21453); assay: 35S-GTPγS binding assay using a membrane prepared from CHO cells which stably express S1P1 receptor; format: biochemical; settings: CHO cell membrane fraction stably expressing human S1P1, read-out: EC50 (concentration of agonist required to give 50% of its own maximum increase ratio), human S1P1
T1 construct: expressed in transfected cells
T1 sequence (P21453 whole entry): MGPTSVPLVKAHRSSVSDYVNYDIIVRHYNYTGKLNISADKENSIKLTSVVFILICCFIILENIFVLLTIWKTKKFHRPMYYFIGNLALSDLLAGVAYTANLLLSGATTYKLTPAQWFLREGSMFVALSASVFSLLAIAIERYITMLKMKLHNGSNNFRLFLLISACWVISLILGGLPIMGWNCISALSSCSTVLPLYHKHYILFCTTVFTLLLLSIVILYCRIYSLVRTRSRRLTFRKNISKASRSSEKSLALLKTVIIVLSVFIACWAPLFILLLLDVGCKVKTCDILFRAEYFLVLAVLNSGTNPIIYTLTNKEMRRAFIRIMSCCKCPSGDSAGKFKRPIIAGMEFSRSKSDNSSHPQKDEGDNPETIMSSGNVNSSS
Protocol: ^35S-GTPγS Binding Assay Using a Membrane Prepared from CHO Cells Which Stably Express S1P1 Receptor
Functional activation of human S1P1 by the compounds was determined based on quantification of ^35S-GTPγS binding to G protein due to the receptor activation, by using a cell membrane fraction prepared from CHO cells in which human S1P1 are stably expressed. As for human S1P1, the above described human S1P1 was used. Membrane proteins as prepared and various concentrations of sphingosine-1-phosphate or the compounds diluted in a solvent such as DMSO were incubated in a solution comprising 20 mM Tris-Cl (pH 7.5), 100 mM NaCl, 10 mM MgCl2, […] (Upstate), 0.1% BSA (fatty acid free, Sigma) and 25 pM ^35S-GTPγS (specific activity 1250 Ci/mmol) in 96 well microtiter plates. Binding was performed by incubating them for 90 minutes at room temperature, and then terminated by harvesting the membrane proteins onto multiscreeen harvest FB plates (Millipore) using Millipore multiscreen separation system. After drying the harvest plates at least for 12 hours, 25 μl of MicroScint-O (Perkin Elmer) was added to each well and radioactivity was measured using a Top Counter.
Having the value measured for the well to which a solvent has been added as a control value, the agonist activity of the compounds was determined by comparing the increase in the well to which a test compound has been added to the control value, and therefore an increase ratio for each concentration of the compounds was obtained. EC50 values were culcurated as defined to be the concentration of agonist required to give 50% of its own maximum increase ratio.

Row | EC50 | Compound
1 | < 10 nM | O=C(O)[C@H]1C[C@H](NC2CCc3cc(-c4noc(-c5ccc(-c6ccccc6F)c(F)c5)n4)ccc32)C1 (some centres unmarked) [Example 61]
2 | < 10 nM | Cc1cc(-c2nc(-c3ccc4c(c3)CCC4N[C@H]3C[C@H](C(=O)O)C3)no2)cc(C)c1-c1ccccc1F (some centres unmarked) [Example 15]
3 | < 10 nM | O=C(O)[C@H]1C[C@H](NC2CCc3cc(-c4noc(-c5ccc(-c6ccccc6)c(F)c5)n4)ccc32)C1 (some centres unmarked) [Example 60]
4 | < 10 nM | Cc1cc(-c2nc(-c3ccc4c(c3)CCC4N[C@H]3C[C@H](C(=O)O)C3)no2)c(F)cc1-c1ccsc1 (some centres unmarked) [Example 5]
5 | < 10 nM | Cc1cc(-c2nc(-c3ccc4c(c3)CN([C@H]3C[C@H](C(=O)O)C3)C4)no2)ccc1-c1cccc(F)c1C(F)(F)F [Example 95]
6 | < 10 nM | Cc1cc(-c2nc(-c3ccc4c(c3)CN([C@H]3C[C@H](C(=O)O)C3)C4)no2)ccc1-c1ccsc1 [Example 78]
7 | < 10 nM | Cc1cc(-c2nc(-c3ccc4c(c3)CCC4N[C@H]3C[C@H](C(=O)O)C3)no2)ccc1-c1ccccc1Cl (some centres unmarked) [Example 58]
8 | < 10 nM | Cc1cc(-c2nc(-c3ccc4c(c3)CCC4N[C@H]3C[C@H](C(=O)O)C3)no2)ccc1-c1ccccc1F (some centres unmarked) [Example 20]
9 | < 10 nM | Cc1cc(-c2nc(-c3ccc4c(c3)CN([C@H]3C[C@H](C(=O)O)C3)C4)no2)ccc1-c1cc(F)cc(F)c1F [Example 100]
10 | < 10 nM | Cc1cc(-c2nc(-c3ccc4c(c3)CCC4N[C@H]3C[C@H](C(=O)O)C3)no2)ccc1-c1ccccc1C(F)(F)F (some centres unmarked) [Example 21]
11 | < 10 nM | Cc1cc(-c2nc(-c3ccc4c(c3)CCC4N[C@H]3C[C@H](C(=O)O)C3)no2)ccc1-c1cc(F)cc(F)c1F (some centres unmarked) [Example 46]
12 | < 10 nM | O=C(O)C1CC(NC2CCc3cc(-c4noc(-c5ccc(-c6ccccc6F)c(Cl)c5)n4)ccc32)C1 (stereo not drawn) [Example 55, 1,3-Trans-3-(5-(5-(2-chloro-2′-fluorobiphenyl-4-yl)-1,2,4-oxadiazol-3-yl)-2,3-dihydro-1H-inden-1-ylamino)cyclobutane carboxylic acid hydrochloric acid salt]
13 | < 10 nM | Cc1cc(-c2nc(-c3ccc4c(c3)CCC4N[C@H]3C[C@H](C(=O)O)C3)no2)ccc1-c1cccc(I)c1C(F)(F)F (some centres unmarked) [Example 52]
14 | < 10 nM | Cc1cc(-c2nc(-c3ccc4c(c3)CCC4N[C@H]3C[C@H](C(=O)O)C3)no2)c(F)cc1-c1ccccc1 (some centres unmarked) [Example 12]
15 | < 10 nM | Cc1cc(-c2nc(-c3ccc4c(c3)CCC4N[C@H]3C[C@H](C(=O)O)C3)no2)cc(C)c1-c1ccsc1 (some centres unmarked) [Example 16]
16 | < 10 nM | Cc1cc(-c2nc(-c3ccc4c(c3)CCC4N[C@H]3C[C@H](C(=O)O)C3)no2)ccc1-c1cc(F)ccc1C#N (some centres unmarked) [Example 65]
17 | < 10 nM | N#Cc1ccccc1-c1ccc(-c2nc(-c3ccc4c(c3)CCC4N[C@H]3C[C@H](C(=O)O)C3)no2)cc1Cl (some centres unmarked) [Example 63]
18 | < 10 nM | Cc1cscc1-c1c(C)cc(-c2nc(-c3ccc4c(c3)CCC4N[C@H]3C[C@H](C(=O)O)C3)no2)cc1C (some centres unmarked) [Example 22]
19 | < 10 nM | Cc1cc(-c2nc(-c3ccc4c(c3)CN([C@H]3C[C@H](C(=O)O)C3)C4)no2)ccc1-c1cccc(C(F)(F)F)c1F [Example 92]
20 | < 10 nM | Cc1cc(-c2nc(-c3ccc4c(c3)CCC4N[C@H]3C[C@H](C(=O)O)C3)no2)c(F)cc1-c1cccc(F)c1C(F)(F)F (some centres unmarked) [Example 40]
21 | < 10 nM | Cc1cc(-c2nc(-c3ccc4c(c3)CN([C@H]3C[C@H](C(=O)O)C3)C4)no2)ccc1-c1cccc(F)c1F [Example 90]
22 | < 10 nM | Cc1cc(-c2nc(-c3ccc4c(c3)CN([C@H]3C[C@H](C(=O)O)C3)C4)no2)ccc1-c1ccccc1C(F)(F)F [Example 85]

Row | EC50 | Compound
23 | < 10 nM | Cc1cc(-c2nc(-c3ccc4c(c3)CCC4N[C@H]3C[C@H](C(=O)O)C3)no2)c(F)cc1-c1cccc(C(F)(F)F)c1F (some centres unmarked) [Example 41]
24 | < 10 nM | Cc1cc(-c2nc(-c3ccc4c(c3)CCC4N[C@H]3C[C@H](C(=O)O)C3)no2)c(F)cc1-c1cccc(F)c1F (some centres unmarked) [Example 32]
25 | < 10 nM | Cc1cc(-c2nc(-c3ccc4c(c3)CCC4N[C@H]3C[C@H](C(=O)O)C3)no2)c(F)cc1-c1cccc(F)c1 (some centres unmarked) [Example 23]
26 | < 10 nM | Cc1cc(-c2nc(-c3ccc4c(c3)CCC4N[C@H]3C[C@H](C(=O)O)C3)no2)cc(C)c1-c1ccccc1 (some centres unmarked) [Example 2]
27 | < 10 nM | Cc1cc(-c2nc(-c3ccc4c(c3)CCC4N[C@H]3C[C@H](C(=O)O)C3)no2)ccc1-c1cccc(Cl)c1F (some centres unmarked) [Example 34]
28 | < 10 nM | Cc1cc(-c2nc(-c3ccc4c(c3)CN([C@H]3C[C@H](C(=O)O)C3)C4)no2)ccc1-c1cscc1C [Example 88]
29 | < 10 nM | Cc1cc(-c2nc(-c3ccc4c(c3)CN([C@H]3C[C@@H](C(=O)O)C3)C4)no2)c(F)cc1-c1cc(F)cc(F)c1F [Example 106]
30 | < 10 nM | Cc1cc(-c2nc(-c3cc(C)c4c(c3)CN([C@H]3C[C@H](C(=O)O)C3)C4)no2)ccc1-c1ccccc1C(F)(F)F [Example 54]
31 | < 10 nM | Cc1cc(-c2nc(-c3ccc4c(c3)CCC4N[C@H]3C[C@H](C(=O)O)C3)no2)ccc1-c1cccc(C(F)(F)F)c1C(F)(F)F (some centres unmarked) [Example 47]
32 | < 10 nM | Cc1cc(-c2nc(-c3ccc4c(c3)CCC4N[C@H]3C[C@H](C(=O)O)C3)no2)ccc1-c1ccsc1 (some centres unmarked) [Example 3]
33 | < 10 nM | Cc1cc(-c2nc(-c3ccc4c(c3)CCC4N[C@H]3C[C@H](C(=O)O)C3)no2)ccc1-c1c(Cl)ccc(C)c1F (some centres unmarked) [Example 44]
34 | < 10 nM | Cc1cc(-c2nc(-c3ccc4c(c3)CCC4N[C@H]3C[C@H](C(=O)O)C3)no2)ccc1-c1cccc(C(F)(F)F)c1F (some centres unmarked) [Example 31]
35 | < 10 nM | CSc1ccccc1-c1ccc(-c2nc(-c3ccc4c(c3)CN([C@H]3C[C@H](C(=O)O)C3)C4)no2)cc1C [Example 10]
36 | < 10 nM | Cc1cc(-c2nc(-c3ccc4c(c3)CCC4N[C@H]3C[C@H](C(=O)O)C3)no2)ccc1-c1cc(F)ccc1F (some centres unmarked) [Example 29]
37 | < 10 nM | Cc1cc(-c2nc(-c3ccc4c(c3)CCC4N[C@H]3C[C@H](C(=O)O)C3)no2)ccc1-c1cccc(Br)c1C(F)(F)F (some centres unmarked) [Example 51]
38 | < 10 nM | Cc1cc(-c2nc(-c3ccc4c(c3)CCC4N[C@H]3C[C@H](C(=O)O)C3)no2)ccc1-c1c(F)cccc1F (some centres unmarked) [Example 42]
39 | < 10 nM | O=C(O)[C@H]1C[C@H](N2Cc3ccc(-c4noc(-c5ccc(-c6ccccc6)c(Cl)c5)n4)cc3C2)C1 [Example 67]
40 | < 10 nM | Cc1cc(-c2nc(-c3ccc4c(c3)CN([C@H]3C[C@H](C(=O)O)C3)C4)no2)c(F)cc1-c1ccccc1F [Example 89]
41 | < 10 nM | Cc1cc(-c2nc(-c3ccc4c(c3)CN([C@H]3C[C@@H](C(=O)O)C3)C4)no2)ccc1-c1ccccc1 [Example 104]
42 | < 10 nM | Cc1cc(-c2nc(-c3ccc4c(c3)CN([C@H]3C[C@H](C(=O)O)C3)C4)no2)c(F)cc1-c1cc(F)cc(F)c1F [Example 102]
43 | < 10 nM | CSc1ccccc1-c1ccc(-c2nc(-c3ccc4c(c3)CCC4N[C@H]3C[C@H](C(=O)O)C3)no2)cc1C (mixture of isomers) [Example 6, 1,3-Trans-3-(5-(5-(2-methyl-2′-methylthiobiphenyl-4-yl)-1,2,4-oxadiazol-3-yl)-2,3-dihydro-1H-inden-1-ylamino)cyclobutane carboxylic acid hydrochloric acid salt]
44 | < 10 nM | O=C(O)[C@H]1C[C@H](NC2CCc3cc(-c4noc(-c5ccc(-c6ccccc6)c(Cl)c5)n4)ccc32)C1 (some centres unmarked) [Example 62]
